Reference: the supplement of paper PMC12076712

What was measured:
Assay in all cases: pIC50, kinobeads binding competition
AAK1 = AAK1 (UniProt Q2M2I8)
Method in brief: (§1)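 Fold changes relative to vehicle, from biological duplicates, were fitted with logistic dose-response models in the R drc package to give pIC50. These fold changes came from TMT10 LC-MS/MS quantification of digested Kinobeads-bound proteins. Compound was applied at nine concentrations (top 30 μM) either to live Jurkat cells in 1:4 steps for 60 min at 37 °C before lysis, or to Jurkat lysate or a 1:1:1:1 HEK293/K-562/HepG2/placenta lysate mix in 1:5 steps for 60 min at 4 °C.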

CAMKK1 = CAMKK1 (UniProt Q8N5S9)
Sequence of CAMKK1 (Q8N5S9 whole entry, looked up): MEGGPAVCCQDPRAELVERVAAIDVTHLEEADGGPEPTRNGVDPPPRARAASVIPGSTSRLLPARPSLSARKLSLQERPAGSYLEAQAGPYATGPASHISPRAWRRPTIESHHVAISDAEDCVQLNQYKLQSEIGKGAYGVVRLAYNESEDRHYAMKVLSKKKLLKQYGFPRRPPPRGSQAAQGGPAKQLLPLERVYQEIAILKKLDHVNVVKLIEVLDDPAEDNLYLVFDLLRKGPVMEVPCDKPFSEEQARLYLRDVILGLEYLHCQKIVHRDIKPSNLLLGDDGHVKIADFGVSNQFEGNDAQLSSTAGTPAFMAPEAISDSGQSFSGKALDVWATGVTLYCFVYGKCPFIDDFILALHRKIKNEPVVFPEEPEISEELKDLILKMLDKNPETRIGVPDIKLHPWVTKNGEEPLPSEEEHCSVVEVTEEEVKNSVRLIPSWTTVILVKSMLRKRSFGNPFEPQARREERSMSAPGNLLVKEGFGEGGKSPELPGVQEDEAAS
Method in brief: as §1

CIT = CIT (UniProt O14578)
Sequence of CIT (O14578 whole entry): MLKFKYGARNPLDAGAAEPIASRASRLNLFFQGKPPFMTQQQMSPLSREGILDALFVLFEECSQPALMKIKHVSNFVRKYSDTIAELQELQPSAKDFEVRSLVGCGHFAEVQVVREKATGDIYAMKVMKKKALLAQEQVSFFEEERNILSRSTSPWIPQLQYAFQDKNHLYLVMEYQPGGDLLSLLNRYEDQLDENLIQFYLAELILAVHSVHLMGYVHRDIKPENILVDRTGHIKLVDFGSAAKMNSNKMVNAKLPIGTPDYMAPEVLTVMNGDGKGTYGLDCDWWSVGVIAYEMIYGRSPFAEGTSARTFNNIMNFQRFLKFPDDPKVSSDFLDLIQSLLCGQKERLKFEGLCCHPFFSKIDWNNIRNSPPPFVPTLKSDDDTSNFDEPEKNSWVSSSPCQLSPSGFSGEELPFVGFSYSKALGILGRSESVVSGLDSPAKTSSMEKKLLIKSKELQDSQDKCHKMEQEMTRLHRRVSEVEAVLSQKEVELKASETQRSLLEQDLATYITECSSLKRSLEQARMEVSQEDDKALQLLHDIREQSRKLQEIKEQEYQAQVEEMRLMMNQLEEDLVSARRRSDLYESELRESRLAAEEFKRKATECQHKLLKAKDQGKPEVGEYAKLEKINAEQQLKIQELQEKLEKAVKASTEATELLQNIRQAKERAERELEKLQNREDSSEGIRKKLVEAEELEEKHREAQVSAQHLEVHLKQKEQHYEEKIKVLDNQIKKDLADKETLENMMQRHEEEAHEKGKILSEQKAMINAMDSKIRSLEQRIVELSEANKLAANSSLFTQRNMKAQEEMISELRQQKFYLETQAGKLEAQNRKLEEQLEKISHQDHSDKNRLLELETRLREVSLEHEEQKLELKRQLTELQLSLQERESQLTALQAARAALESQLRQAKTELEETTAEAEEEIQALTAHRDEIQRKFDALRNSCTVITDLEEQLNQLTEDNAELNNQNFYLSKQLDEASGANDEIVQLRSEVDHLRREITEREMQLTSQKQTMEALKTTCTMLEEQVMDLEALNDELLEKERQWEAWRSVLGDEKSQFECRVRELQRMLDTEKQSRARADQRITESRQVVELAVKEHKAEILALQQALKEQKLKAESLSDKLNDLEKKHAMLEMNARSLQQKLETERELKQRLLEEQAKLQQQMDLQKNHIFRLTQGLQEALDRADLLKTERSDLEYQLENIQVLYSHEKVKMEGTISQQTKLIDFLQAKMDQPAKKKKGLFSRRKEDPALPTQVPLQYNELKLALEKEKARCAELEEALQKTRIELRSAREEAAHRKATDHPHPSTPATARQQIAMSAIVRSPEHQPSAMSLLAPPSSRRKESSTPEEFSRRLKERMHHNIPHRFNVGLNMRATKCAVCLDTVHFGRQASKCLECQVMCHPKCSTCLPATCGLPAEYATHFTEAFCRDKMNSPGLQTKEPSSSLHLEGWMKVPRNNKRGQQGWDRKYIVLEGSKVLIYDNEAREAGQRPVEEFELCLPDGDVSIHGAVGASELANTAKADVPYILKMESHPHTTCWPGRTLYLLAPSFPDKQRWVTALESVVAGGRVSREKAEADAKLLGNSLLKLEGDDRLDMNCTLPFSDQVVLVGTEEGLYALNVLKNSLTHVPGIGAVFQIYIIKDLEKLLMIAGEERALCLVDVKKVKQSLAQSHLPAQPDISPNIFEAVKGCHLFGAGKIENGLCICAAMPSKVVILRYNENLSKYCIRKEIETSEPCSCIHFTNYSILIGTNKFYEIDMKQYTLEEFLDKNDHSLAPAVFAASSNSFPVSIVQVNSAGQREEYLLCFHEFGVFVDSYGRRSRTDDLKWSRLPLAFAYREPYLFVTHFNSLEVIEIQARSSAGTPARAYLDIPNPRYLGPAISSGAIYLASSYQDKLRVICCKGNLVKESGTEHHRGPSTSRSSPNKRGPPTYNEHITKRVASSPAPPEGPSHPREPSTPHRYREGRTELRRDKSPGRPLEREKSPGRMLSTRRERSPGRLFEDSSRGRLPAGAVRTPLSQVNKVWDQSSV
Method in brief: as §1

EPHB6 = target: T1, EPHB6 (UniProt O15197)
T1 sequence (whole entry): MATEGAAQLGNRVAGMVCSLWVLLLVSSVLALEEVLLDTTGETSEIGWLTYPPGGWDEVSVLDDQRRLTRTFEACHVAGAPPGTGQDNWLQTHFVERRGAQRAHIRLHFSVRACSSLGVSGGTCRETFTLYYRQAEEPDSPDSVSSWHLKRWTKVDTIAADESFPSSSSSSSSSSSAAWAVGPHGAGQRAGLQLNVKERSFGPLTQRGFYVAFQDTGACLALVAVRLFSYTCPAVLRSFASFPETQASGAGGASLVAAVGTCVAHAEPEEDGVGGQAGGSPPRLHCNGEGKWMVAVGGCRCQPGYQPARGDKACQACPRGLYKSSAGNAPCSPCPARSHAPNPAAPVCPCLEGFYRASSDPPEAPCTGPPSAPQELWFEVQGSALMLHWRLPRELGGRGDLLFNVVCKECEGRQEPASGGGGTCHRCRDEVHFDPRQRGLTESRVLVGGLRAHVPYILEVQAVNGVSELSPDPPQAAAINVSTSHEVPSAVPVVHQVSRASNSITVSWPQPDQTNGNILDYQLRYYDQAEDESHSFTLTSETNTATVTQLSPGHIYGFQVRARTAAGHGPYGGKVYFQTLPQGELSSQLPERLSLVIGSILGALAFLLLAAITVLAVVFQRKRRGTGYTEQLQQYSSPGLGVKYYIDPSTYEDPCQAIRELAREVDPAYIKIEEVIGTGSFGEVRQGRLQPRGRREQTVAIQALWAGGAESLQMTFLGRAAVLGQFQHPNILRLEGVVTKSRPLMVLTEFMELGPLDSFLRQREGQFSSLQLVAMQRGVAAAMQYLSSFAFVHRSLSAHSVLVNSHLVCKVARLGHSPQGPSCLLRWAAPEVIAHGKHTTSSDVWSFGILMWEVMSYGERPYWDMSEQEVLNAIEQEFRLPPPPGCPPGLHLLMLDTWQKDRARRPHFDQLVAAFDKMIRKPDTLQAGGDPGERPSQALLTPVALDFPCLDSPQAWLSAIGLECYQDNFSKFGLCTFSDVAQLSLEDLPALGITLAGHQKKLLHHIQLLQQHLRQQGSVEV
Method in brief: as §1

LYN = LYN (UniProt P07948)
Sequence of LYN (P07948 whole entry, looked up): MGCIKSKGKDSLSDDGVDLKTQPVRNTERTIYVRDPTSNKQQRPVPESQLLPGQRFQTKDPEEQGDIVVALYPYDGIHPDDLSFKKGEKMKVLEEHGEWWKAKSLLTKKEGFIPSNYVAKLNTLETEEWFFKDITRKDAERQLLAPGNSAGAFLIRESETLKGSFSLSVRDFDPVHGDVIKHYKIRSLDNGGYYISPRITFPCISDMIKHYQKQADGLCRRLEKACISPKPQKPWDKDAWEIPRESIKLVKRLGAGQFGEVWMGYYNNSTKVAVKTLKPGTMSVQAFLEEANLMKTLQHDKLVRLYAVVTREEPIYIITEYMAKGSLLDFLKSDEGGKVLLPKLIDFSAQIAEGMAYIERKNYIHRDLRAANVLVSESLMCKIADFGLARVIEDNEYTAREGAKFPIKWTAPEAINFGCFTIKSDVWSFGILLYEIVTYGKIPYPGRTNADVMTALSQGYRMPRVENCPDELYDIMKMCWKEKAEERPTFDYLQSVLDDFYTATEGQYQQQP
Method in brief: as §1

UniProt O95382 = target: T2, UniProt O95382; details: cell material: Lysate mix
T2 sequence (whole entry): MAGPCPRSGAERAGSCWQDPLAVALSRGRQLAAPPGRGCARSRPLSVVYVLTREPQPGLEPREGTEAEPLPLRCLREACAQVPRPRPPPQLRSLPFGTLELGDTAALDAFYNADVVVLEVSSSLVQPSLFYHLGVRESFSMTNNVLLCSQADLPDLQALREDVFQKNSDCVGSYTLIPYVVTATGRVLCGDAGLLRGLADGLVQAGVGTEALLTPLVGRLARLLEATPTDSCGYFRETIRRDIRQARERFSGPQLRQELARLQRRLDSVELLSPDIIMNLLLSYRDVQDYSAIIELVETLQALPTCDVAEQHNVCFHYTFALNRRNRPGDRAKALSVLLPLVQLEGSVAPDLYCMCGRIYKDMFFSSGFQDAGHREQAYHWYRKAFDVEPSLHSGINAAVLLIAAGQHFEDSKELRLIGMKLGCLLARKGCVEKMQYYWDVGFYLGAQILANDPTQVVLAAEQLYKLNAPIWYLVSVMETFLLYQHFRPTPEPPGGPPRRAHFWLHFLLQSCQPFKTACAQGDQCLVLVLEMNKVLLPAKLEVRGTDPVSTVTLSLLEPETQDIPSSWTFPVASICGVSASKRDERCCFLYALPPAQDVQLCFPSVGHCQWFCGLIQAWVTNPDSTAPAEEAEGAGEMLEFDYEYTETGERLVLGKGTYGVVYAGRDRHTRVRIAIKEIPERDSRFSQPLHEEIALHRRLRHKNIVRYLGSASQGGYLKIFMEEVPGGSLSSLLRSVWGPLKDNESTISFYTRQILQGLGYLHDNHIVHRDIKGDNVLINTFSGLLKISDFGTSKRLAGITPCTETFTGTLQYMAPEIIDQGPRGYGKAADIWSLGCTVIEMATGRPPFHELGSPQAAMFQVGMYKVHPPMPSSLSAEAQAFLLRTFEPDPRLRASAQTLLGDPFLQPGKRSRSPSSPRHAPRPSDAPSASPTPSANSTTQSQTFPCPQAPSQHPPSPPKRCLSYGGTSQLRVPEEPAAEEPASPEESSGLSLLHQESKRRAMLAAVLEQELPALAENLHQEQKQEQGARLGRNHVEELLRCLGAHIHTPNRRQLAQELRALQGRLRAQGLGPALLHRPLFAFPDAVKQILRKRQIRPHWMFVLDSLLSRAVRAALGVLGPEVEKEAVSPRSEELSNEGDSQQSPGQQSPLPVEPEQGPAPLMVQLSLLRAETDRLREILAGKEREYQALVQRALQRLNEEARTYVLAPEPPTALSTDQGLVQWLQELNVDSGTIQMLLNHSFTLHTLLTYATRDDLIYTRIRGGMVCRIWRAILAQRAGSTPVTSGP
Method in brief: as §1

UniProt P17612 = target: UniProt P17612
Method in brief: as §1

UniProt P27448 = target: UniProt P27448
Sequence of UniProt P27448 (P27448 whole entry, looked up): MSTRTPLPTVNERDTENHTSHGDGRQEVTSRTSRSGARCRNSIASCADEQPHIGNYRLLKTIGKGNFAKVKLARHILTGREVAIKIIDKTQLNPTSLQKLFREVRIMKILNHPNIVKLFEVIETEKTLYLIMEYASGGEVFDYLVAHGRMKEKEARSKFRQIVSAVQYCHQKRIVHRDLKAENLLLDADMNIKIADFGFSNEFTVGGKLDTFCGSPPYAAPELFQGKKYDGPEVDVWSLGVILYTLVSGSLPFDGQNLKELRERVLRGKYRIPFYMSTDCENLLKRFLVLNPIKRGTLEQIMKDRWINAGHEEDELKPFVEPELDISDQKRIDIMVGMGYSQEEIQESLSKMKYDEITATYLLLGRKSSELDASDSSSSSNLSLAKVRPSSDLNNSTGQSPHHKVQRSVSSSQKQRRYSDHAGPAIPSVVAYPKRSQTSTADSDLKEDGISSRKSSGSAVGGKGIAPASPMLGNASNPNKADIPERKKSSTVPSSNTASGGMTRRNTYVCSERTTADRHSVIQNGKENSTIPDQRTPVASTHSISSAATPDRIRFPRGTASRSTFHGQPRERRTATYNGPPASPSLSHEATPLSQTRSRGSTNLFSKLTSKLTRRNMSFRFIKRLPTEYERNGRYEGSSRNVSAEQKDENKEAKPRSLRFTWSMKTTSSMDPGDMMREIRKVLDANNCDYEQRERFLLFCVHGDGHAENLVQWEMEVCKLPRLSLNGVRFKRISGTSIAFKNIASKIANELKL
Method in brief: as §1

Sequence of AAK1 (Q2M2I8 whole entry, looked up): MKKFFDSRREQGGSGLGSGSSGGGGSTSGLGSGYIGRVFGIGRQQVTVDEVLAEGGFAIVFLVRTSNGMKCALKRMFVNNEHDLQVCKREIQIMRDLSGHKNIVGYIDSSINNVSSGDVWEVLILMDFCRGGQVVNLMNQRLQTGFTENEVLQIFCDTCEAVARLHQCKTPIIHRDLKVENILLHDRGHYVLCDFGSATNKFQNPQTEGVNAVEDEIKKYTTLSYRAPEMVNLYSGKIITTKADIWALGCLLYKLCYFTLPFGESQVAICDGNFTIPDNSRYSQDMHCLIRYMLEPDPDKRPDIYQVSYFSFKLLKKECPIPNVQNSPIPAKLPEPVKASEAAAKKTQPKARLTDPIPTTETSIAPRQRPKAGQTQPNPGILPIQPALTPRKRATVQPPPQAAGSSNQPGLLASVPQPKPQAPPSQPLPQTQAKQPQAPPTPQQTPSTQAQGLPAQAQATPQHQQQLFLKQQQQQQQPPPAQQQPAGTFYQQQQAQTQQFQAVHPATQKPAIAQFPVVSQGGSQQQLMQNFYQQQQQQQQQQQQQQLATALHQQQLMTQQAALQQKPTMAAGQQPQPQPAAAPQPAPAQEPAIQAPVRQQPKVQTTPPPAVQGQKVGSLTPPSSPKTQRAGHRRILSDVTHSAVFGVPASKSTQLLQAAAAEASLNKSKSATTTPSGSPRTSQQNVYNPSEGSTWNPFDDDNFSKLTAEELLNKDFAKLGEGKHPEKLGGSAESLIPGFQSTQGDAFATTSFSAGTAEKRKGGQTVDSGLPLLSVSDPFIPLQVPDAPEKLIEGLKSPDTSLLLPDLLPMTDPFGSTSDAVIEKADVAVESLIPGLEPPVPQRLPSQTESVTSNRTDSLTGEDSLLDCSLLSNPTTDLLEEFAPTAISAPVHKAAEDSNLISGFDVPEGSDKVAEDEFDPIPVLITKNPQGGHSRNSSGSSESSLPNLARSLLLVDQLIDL

Compound | pIC50 (AAK1; cell material: Jurkat cells) | pIC50 (AAK1; cell material: Jurkat lysate) | pIC50 (AAK1; cell material: Lysate mix) | pIC50 (CAMKK1; cell material: Jurkat cells) | pIC50 (CAMKK1; cell material: Jurkat lysate) | pIC50 (CAMKK1; cell material: Lysate mix) | pIC50 (CIT; cell material: Jurkat cells) | pIC50 (CIT; cell material: Jurkat lysate) | pIC50 (CIT; cell material: Lysate mix) | pIC50 (EPHB6; cell material: Jurkat cells) | pIC50 (EPHB6; cell material: Jurkat lysate) | pIC50 (LYN; cell material: Jurkat lysate) | pIC50 (LYN; cell material: Lysate mix) | pIC50 (UniProt O95382) | pIC50 (UniProt P17612; cell material: Jurkat cells) | pIC50 (UniProt P17612; cell material: Jurkat lysate) | pIC50 (UniProt P17612; cell material: Lysate mix) | pIC50 (UniProt P27448; cell material: Jurkat lysate) | pIC50 (UniProt P27448; cell material: Lysate mix) | pIC50 (EPHB6; cell material: Lysate mix) | pIC50 (UniProt P27448; cell material: Jurkat cells)
O=C(NCCNC(=O)c1cc(Nc2cc(C3CC3)[nH]n2)nc(N2CCN(Cc3ccc(S(=O)(=O)F)cc3)CC2)n1)OC1CC/C=C/CCC1 (stereo unspecified) | < 4.52 | < 4.52 | < 4.52 | 6.77 | 6.72 | 6.42 | < 4.52 | < 4.52 | < 4.52 | < 4.52 | < 4.52 | < 4.52 | < 4.52 | < 4.52 | < 4.52 | < 4.52 | < 4.52 | < 4.52 | < 4.52 | – | –
Cc1cc(Nc2cc(C(=O)NCCNC(=O)OC3CC/C=C/CCC3)nc(N3CCN(Cc4ccc(S(=O)(=O)F)cc4)CC3)n2)n[nH]1 (stereo unspecified) | – | – | < 4.52 | – | – | 5.96 | – | – | < 4.52 | – | – | – | < 4.52 | < 4.52 | – | – | < 4.52 | – | < 4.52 | < 4.52 | –
CCNC(=O)c1cc(Nc2cc(C3CC3)[nH]n2)nc(N2CCN(Cc3ccc(S(=O)(=O)F)cc3)CC2)n1 | – | – | < 4.52 | – | – | 6.68 | – | – | < 4.52 | – | – | – | 5.92 | < 4.52 | – | – | < 4.52 | – | < 4.52 | < 4.52 | –
CCNC(=O)c1cc(Nc2cc(C)[nH]n2)nc(N2CCN(Cc3ccc(S(=O)(=O)F)cc3)CC2)n1 | – | – | < 4.52 | – | – | 5.97 | – | – | < 4.52 | – | – | – | 5.98 | 4.66 | – | – | < 4.52 | – | < 4.52 | < 4.52 | –
C#CCNC(=O)c1cc(Nc2cc(C3CC3)[nH]n2)nc(N2CCN(Cc3ccc(S(=O)(=O)F)cc3)CC2)n1 | 5.43 | < 4.52 | < 4.52 | 6.26 | 6.86 | 7.04 | – | < 4.52 | < 4.52 | 5.28 | < 4.52 | 5.41 | 6.03 | < 4.52 | < 4.52 | < 4.52 | < 4.52 | < 4.52 | < 4.52 | < 4.52 | 5.81
C#CCNC(=O)c1cc(Nc2cc(C)[nH]n2)nc(N2CCN(Cc3ccc(S(=O)(=O)F)cc3)CC2)n1 | – | – | < 4.52 | – | – | 5.98 | – | – | < 4.52 | – | – | – | 5.54 | 4.63 | – | – | < 4.52 | – | < 4.52 | < 4.52 | –
